Results as given in BindingDB's records for patent US20250163064 (Amgen, 2025).

Experiments:
GTPase KRas [G12D,C118A] = GTPase KRas [G12D,C118A] (Homo sapiens, UniProt P01116, C118A/G12D); test: KRAS G12D Coupled Nucleotide Exchange Assay
Protocol: The assay plates were then read on a PerkinElmer En Vision Multilabel Reader, using AlphaScreen technology, and data were analyzed using a 4-parameter logistic model to calculate IC50 values.

kras g12d tr-fret = kras g12d tr-fret (Homo sapiens, UniProt P01116, G12D); test: KRAS G12D TR-FRET Assay
kras g12d tr-fret, sequence (P01116 whole entry G12D): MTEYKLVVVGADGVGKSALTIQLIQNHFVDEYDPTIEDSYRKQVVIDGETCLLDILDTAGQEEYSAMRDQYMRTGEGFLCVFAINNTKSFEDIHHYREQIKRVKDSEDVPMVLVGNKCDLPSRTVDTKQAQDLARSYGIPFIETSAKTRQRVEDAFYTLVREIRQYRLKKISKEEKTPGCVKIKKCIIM
Protocol: The His-tagged KRAS G12D protein (Amgen) was diluted to 20 nM in Assay Buffer (20 mM HEPES, pH 7.4, 10 mM MgCl2, 50 mM NaCl, 0.1% BSA, 0.01% Tween-20, 10 μM GDP) and 2 μL was added to the appropriate wells of the 384-well plate. The plate was incubated for 30 minutes at rt. Biotinylated KRPep-2d substrate (Amgen) was diluted to […] in Assay Buffer and 2 AL was added to all wells and incubated for 1 hour at room temperature. Detection Reagent (0.4 nM LANCE Eu-W1024 Anti-6×His (Perkin Elmer AD0401), 5 nM streptavidin-d2 (Cisbio 610SADLA)) was prepared in Assay Buffer, then 4 AL was added to the plate and incubated for 1 h at rt.

GTPase KRas [G12D,C118A], sequence (P01116 whole entry G12D/C118A, looked up): as the sequence (P01116 whole entry G12D) above, with C118A counted along it

Row | IC50 (GTPase KRas [G12D,C118A]) [nM] | IC50 (kras g12d tr-fret) [nM] | SMILES
1 | 6 | 4 | N#Cc1c(N)sc2c(F)ccc(-c3c(Cl)cc4c(N5CC6CC(O)C(C6)C5)nc(OC[C@@]56CCCN5C[C@H](F)C6)nc4c3F)c12 (mixture of isomers) [US20250163064, Example 7]
2 | 7 | 4 | N#Cc1c(N)sc2c(F)ccc(-c3c(Cl)cc4c(N5CCCC(C#N)CC5)nc(OC[C@@]56CCCN5C[C@H](F)C6)nc4c3F)c12 (some centres undefined) [US20250163064, Example 3]
3 | 6 | 4 | N#Cc1c(N)sc2c(F)ccc(-c3c(Cl)cc4c(N5CCCC[C@@H](O)C5)nc(OC[C@@]56CCCN5C[C@H](F)C6)nc4c3F)c12 [US20250163064, Example 4]
4 | 5 | – | N#Cc1c(N)sc2c(F)ccc(-c3c(Cl)cc4c(N5CCOCC(=O)C5)nc(OC[C@@]56CCCN5C[C@H](F)C6)nc4c3F)c12 [US20250163064, Example 6]
5 | 6 | 3 | N#Cc1c(N)sc2c(F)ccc(-c3c(Cl)cc4c(N5CCCC6(CNC(=O)O6)C5)nc(OC[C@@]56CCCN5C[C@H](F)C6)nc4c3F)c12 (some centres undefined) [US20250163064, Example 17]
